Assay [1] has as its system differentiated L6-myotubes. As to the kind of experiment: Glucose uptake screen (Biological example 1 of WO 2019/053427). In kind it is cell-based. To be noted: compound at 10 μM, activity relative to isoproterenol at 10 μM, read-out: Biological example 1 of WO 2019/053427 (GU). The procedure, abridged: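 Rat L6 myoblasts were differentiated into myotubes over 7 days in 2% FBS, then serum-starved overnight. Cells were stimulated with 1×10^−5 M compound plus β2 antagonist ICI-118551 for 1 h 40 min and re-dosed for 20 min in glucose-free medium. Uptake of 50 nM ^3H-2-deoxyglucose over 10 min was counted after NaOH lysis.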

For assay [2], the system named is differentiated L6-myotubes. As to the kind of experiment: cAMP production relative to isoprenaline (Biological example 2 of WO 2019/053427). Format: cell-based. Particulars: 0.25 h, compound at 10 μM, activity relative to isoproterenol at 10 μM. The procedure, abridged:
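Differentiated L6 myotubes stimulated 15 min with test compound or isoprenaline, each at final 1×10^−5 M, in HBSS with 1% BSA, 5 mM HEPES, 1 mM IBMX, pH 7.4. cAMP production by the compound expressed relative to that induced by the same concentration of isoprenaline.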

On to `CC(C)(C[C@H]1CC[C@@H](NC(=O)C2CC2)CC1)NC[C@H](O)c1cccc(F)c1` [Compound 447, N-[(1S,4s)-4-{2-[(R)-2-(m-fluorophenyl)-2-hydroxyethylamino]-2-methylpropyl}cyclohexyl]cyclopropanecarboxamide], for which the Emax at 10 µM in assay [1] is above 75%; in assay [2] it was below 25%.
`CC(C)(C[C@H]1CC[C@@H](NC(=O)C2CCC2)CC1)NC[C@H](O)c1cccc(F)c1` [Compound 448, N-[(1S,4s)-4-{2-[(R)-2-(m-fluorophenyl)-2-hydroxyethylamino]-2-methylpropyl}cyclohexyl]cyclobutanecarboxamide]: the Emax at 10 µM in assay [1] is 50 to 75%; in assay [2], below 25%.
On the same counts, the results for `CC(C)(C[C@H]1CC[C@@H](NC(=O)OC(C)(C)C)CC1)NC[C@H](O)c1cccc(F)c1` [Compound 449] are 50 to 75% and below 25%.
On the same counts, the results for `CC(C)(C[C@H]1CC[C@@H](NC(=O)OC(C)(C)C)CC1)NC[C@H](O)c1cccc(C(F)(F)F)n1` [Compound 450, (1R,4s)-4-(2-{(S)-2-hydroxy-2-[6-(trifluoromethyl)-2-pyridyl]ethylamino}-2-methylpropyl)cyclohexyl 2-methyl-2-propanecarbamate] are below 25% and below 25%.
On the same counts, the results for `CCCS(=O)(=O)N[C@H]1CC[C@H](CC(C)(C)NC[C@H](O)c2cccc(F)c2)CC1` [Compound 451, (R)-2-{1,1-dimethyl-2-[(1r,4R)-4-(propylsulfonylamino)cyclohexyl]ethylamino}-1-(m-fluorophenyl)-1-ethanol] are 50 to 75% and 25 to 50%.
As for `CC(=O)N[C@H]1CC[C@@H](CC(C)(C)NC[C@H](O)c2cccc(F)c2)CC1` [Compound 452, N-[(1S,4s)-4-{2-[(R)-2-(m-fluorophenyl)-2-hydroxyethylamino]-2-methylpropyl}cyclohexyl]acetamide], the Emax at 10 µM is above 75% in assay [1] and below 25% in assay [2].
The matching figures for `CC(C)(C[C@H]1CC[C@@H](NS(C)(=O)=O)CC1)NC[C@H](O)c1cccc(F)c1` [Compound 453, (R)-2-{1,1-dimethyl-2-[(1s,4S)-4-(mesylamino)cyclohexyl]ethylamino}-1-(m-fluorophenyl)-1-ethanol]: above 75% and below 25%.
On the same counts, the results for `CC(C)(C[C@H]1CC[C@@H](NC(=O)C(F)(F)F)CC1)NC[C@H](O)c1cccc(F)c1` [Compound 454, N-[(1S,4s)-4-{2-[(R)-2-(m-fluorophenyl)-2-hydroxyethylamino]-2-methylpropyl}cyclohexyl]trifluoroacetamide] are above 75% and below 25%.
The matching figures for `CC(C)(C[C@H]1CC[C@@H](NC(=O)C(C)(C)C)CC1)NC[C@H](O)c1cccc(F)c1` [Compound 455, N-[(1S,4s)-4-{2-[(R)-2-(m-fluorophenyl)-2-hydroxyethylamino]-2-methylpropyl}cyclohexyl]2,2-dimethylpropionamide]: 50 to 75% and below 25%.
Consider `CC(C)(C[C@H]1CC[C@@H](N)CC1)NC[C@H](O)c1cccc(F)c1` [Compound 456, (R)-2-{1,1-dimethyl-2-[(1s,4S)-4-aminocyclohexyl]ethylamino}-1-(m-fluorophenyl)-1-ethanol], for which the results for the Emax at 10 µM in assay [1] and in assay [2] were above 75% and below 25%, respectively.
The matching figures for `CN(C)C(=O)N[C@H]1CC[C@@H](CC(C)(C)NC[C@H](O)c2cccc(F)c2)CC1` [Compound 457, (R)-2-{1,1-dimethyl-2-[(1s,4S)-4-(3,3-dimethylureido)cyclohexyl]ethylamino}-1-(m-fluorophenyl)-1-ethanol]: above 75% and 25 to 50%.
On the same counts, the results for `CC(C)(C[C@H]1CC[C@H](NS(=O)(=O)C(F)(F)F)CC1)NC[C@H](O)c1cccc(F)c1` [Compound 458, (R)-2-{1,1-dimethyl-2-[(1r,4R)-4-(trifluoromesylamino)cyclohexyl]ethylamino}-1-(m-fluorophenyl)-1-ethanol] are above 75% and below 25%.
On the same counts, the results for `CC(C)(C[C@H]1CC[C@H](NC(=O)OC(C)(C)C)CC1)NC[C@H](O)c1cccc(C(F)(F)F)n1` [Compound 459, (1S,4r)-4-(2-{(S)-2-hydroxy-2-[6-(trifluoromethyl)-2-pyridyl]ethylamino}-2-methylpropyl)cyclohexyl 2-methyl-2-propanecabamate] are above 75% and below 25%.
For `CC(=O)N[C@H]1CC[C@H](CC(C)(C)NC[C@H](O)c2cccc(C(F)(F)F)n2)CC1` [Compound 460, N-[(1S,4r)-4-(2-{(S)-2-hydroxy-2-[6-(trifluoromethyl)-2-pyridyl]ethylamino}-2-methylpropyl)cyclohexyl]acetamide], the Emax at 10 µM in assay [1] was 50 to 75%; in assay [2], below 25%.
The matching figures for `CC(C)(C[C@H]1CC[C@H](NS(C)(=O)=O)CC1)NC[C@H](O)c1cccc(C(F)(F)F)n1` [Compound 461, (S)-2-{1,1-dimethyl-2-[(1r,4S)-4-(mesylamino)cyclohexyl]ethylamino}-1-[6-(trifluoromethyl)-2-pyridyl]-1-ethanol]: 25 to 50% and below 25%.
On the same counts, the results for `CC(=O)N[C@H]1CC[C@@H](CC(C)(C)NC[C@H](O)c2cccc(C(F)(F)F)n2)CC1` [Compound 462, N-[(1R,4s)-4-(2-{(S)-2-hydroxy-2-[6-(trifluoromethyl)-2-pyridyl]ethylamino}-2-methylpropyl)cyclohexyl]acetamide] are 25 to 50% and below 25%.
On the same counts, the results for `CC(C)(C[C@H]1CC[C@@H](NS(C)(=O)=O)CC1)NC[C@H](O)c1cccc(C(F)(F)F)n1` [Compound 463, (S)-2-{1,1-dimethyl-2-[(1s,4R)-4-(mesylamino)cyclohexyl]ethylamino}-1-[6-(trifluoromethyl)-2-pyridyl]-1-ethanol] are 50 to 75% and below 25%.
With `CN(C)S(=O)(=O)[C@H]1CC[C@H](CC(C)(C)NC[C@H](O)c2cccc(F)c2)CC1` [Compound 464, (R)-2-{1,1-dimethyl-2-[(1r,4R)-4-(dimethylaminosulfonyl)cyclohexyl]ethylamino}-1-(m-fluorophenyl)-1-ethanol], the Emax at 10 µM in assay [1] and in assay [2] was 25 to 50% throughout.
For the compound `CN(C)S(=O)(=O)[C@H]1CC[C@H](CC(C)(C)NC[C@H](O)c2cncc(F)c2)CC1` [Compound 465, (R)-2-{1,1-dimethyl-2-[(1r,4R)-4-(dimethylaminosulfonyl)cyclohexyl]ethylamino}-1-(5-fluoro-3-pyridyl)-1-ethanol], the Emax at 10 µM in assay [1] was in the range of 50 to 75%; in assay [2], 25 to 50%.
The matching figures for `CC(C)(C[C@H]1CC[C@@H](N)CC1)NC[C@H](O)c1cncc(F)c1` [Compound 466, (R)-2-{1,1-dimethyl-2-[(1s,4S)-4-aminocyclohexyl]ethylamino}-1-(5-fluoro-3-pyridyl)-1-ethanol]: 50 to 75% and below 25%.
On the same counts, the results for `CC(=O)N[C@H]1CC[C@@H](CC(C)(C)NC[C@H](O)c2cncc(F)c2)CC1` [Compound 467, N-[(1S,4s)-4-{2-[(R)-2-(5-fluoro-3-pyridyl)-2-hydroxyethylamino]-2-methylpropyl}cyclohexyl]acetamide] are above 75% and below 25%.
On the same counts, the results for `CC(C)(C[C@H]1CC[C@@H](NS(C)(=O)=O)CC1)NC[C@H](O)c1cncc(F)c1` [Compound 468, (R)-2-{1,1-dimethyl-2-[(1s,4S)-4-(mesylamino)cyclohexyl]ethylamino}-1-(5-fluoro-3-pyridyl)-1-ethanol] are above 75% and below 25%.
For `CC(C)(C[C@H]1CC[C@@H](NC(=O)OC(C)(C)C)CC1)NC[C@H](O)c1cncc(F)c1` [Compound 469], the Emax at 10 µM is above 75% in assay [1] and below 25% in assay [2].
Regarding `CN(C)S(=O)(=O)[C@H]1CC[C@@H](CC(C)(C)NC[C@H](O)c2cccc(F)c2)CC1` [Compound 470, (R)-2-{1,1-dimethyl-2-[(1s,4S)-4-(dimethylaminosulfonyl)cyclohexyl]ethylamino}-1-(m-fluorophenyl)-1-ethanol], the values for the Emax at 10 µM in assay [1] and in assay [2] were above 75% and 25 to 50%, respectively.
The matching figures for `CN(C)S(=O)(=O)[C@H]1CC[C@@H](CC(C)(C)NC[C@H](O)c2cncc(F)c2)CC1` [Compound 471, (R)-2-{1,1-dimethyl-2-[(1s,4S)-4-(dimethylaminosulfonyl)cyclohexyl]ethylamino}-1-(5-fluoro-3-pyridyl)-1-ethanol]: above 75% and 50 to 75%.
Take `CS(=O)(=O)N(Cc1ccccc1)c1ccc(CC23CCC([C@@H](O)c4cccc(F)c4)(CC2)N3)cc1` [Compound 472, (S)-[4-({p-[(benzyl)-N-mesylamino]phenyl}methyl)-7-azabicyclo[2.2.1]hept-1-yl](m-fluorophenyl)methanol]: the Emax at 10 µM was 25 to 50% in assay [1] and below 25% in assay [2].
For `CS(=O)(=O)N(Cc1ccccc1)c1ccc(CC23CCC([C@H](O)c4cccc(F)c4)(CC2)N3)cc1` [Compound 473, (R)-[4-({p-[(benzyl)-N-mesylamino]phenyl}methyl)-7-azabicyclo[2.2.1]hept-1-yl](m-fluorophenyl)methanol], the Emax at 10 µM in assay [1] was 25 to 50%; in assay [2], below 25%.

For the origin of these results see US20260256751A1, “COMBINATION OF BETA-2-ADRENERGIC RECEPTOR AGONISTS AND GLP-1 RECEPTOR AGONISTS FOR USE IN TREATING HYPERGLYCAEMIA” (ATROGI AB, priority 2023, published 2026).
